{
  "source": "patent US8614327B2",
  "about": "(Vertex Pharmaceuticals Incorporated, priority 2004, dated 2013)",
  "molecular_target": "T1, ΔF508-CFTR (Homo sapiens, UniProt P13569, DEL508-508)",
  "T1 construct": "expressed in transfected cells",
  "T1 sequence (P13569 with tags, fused parts or gaps DEL508-508)": "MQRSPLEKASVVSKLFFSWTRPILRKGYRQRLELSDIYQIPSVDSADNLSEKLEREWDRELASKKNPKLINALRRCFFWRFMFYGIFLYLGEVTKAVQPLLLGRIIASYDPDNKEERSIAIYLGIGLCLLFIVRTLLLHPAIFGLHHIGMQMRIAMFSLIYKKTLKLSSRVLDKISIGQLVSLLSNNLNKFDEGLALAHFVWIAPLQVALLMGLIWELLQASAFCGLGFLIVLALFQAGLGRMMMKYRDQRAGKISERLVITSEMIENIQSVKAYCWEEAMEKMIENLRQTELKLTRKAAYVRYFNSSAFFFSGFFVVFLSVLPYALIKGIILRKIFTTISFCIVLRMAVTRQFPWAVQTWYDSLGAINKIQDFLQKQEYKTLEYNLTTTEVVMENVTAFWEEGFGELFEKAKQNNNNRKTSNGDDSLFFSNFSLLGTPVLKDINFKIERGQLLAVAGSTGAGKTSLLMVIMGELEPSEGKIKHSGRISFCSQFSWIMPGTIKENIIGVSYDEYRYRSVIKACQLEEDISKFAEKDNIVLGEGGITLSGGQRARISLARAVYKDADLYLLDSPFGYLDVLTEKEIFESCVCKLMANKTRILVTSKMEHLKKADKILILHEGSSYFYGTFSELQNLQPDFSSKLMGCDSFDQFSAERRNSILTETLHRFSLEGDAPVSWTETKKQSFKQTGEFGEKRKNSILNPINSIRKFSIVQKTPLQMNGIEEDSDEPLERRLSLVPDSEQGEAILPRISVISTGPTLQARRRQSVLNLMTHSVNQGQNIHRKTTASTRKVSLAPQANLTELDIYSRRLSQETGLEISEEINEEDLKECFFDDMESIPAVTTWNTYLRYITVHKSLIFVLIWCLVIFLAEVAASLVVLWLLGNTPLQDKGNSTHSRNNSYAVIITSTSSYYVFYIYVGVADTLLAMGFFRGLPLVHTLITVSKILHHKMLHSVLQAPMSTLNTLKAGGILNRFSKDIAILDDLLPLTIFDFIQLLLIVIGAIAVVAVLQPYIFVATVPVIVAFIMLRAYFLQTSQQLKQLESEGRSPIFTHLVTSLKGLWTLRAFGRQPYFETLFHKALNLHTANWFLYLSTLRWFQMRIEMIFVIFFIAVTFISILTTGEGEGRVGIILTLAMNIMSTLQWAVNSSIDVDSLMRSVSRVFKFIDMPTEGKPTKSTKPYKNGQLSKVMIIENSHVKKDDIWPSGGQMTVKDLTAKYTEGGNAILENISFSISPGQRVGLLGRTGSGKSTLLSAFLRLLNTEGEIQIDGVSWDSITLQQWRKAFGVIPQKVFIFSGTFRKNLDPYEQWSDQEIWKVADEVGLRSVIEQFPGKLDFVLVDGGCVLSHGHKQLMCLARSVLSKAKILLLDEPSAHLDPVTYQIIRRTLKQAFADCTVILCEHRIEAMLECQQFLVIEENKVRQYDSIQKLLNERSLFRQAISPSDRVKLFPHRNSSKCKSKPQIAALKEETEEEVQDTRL",
  "assay": "Membrane potential optical (FRET/VIPR) assay, identification of potentiator compounds",
  "assay_type": "cell-based",
  "conditions": "Table 3, assay not given; for % Activity: relative efficacy",
  "summary_of_the_method": "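Double-addition potentiator screen: compound delivered in gluconate-substituted Cl^--free medium, membrane potential followed via CC2-DMPE/DiSBAC2(3) FRET on VIPR. Cells were ΔF508-CFTR-expressing NIH3T3 mouse fibroblasts, held 2 h at 37° C. then 24 h at 27° C. before assay.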",
  "data": [
    {"molecule": "Cn1cc(C(=O)Nc2ccccc2)c(=O)c2ccccc21", "note": "[Compound 468, 1-methyl-4-oxo-N-phenyl-1H-quinoline-3-carboxamide]", "values": [
      {"measurement": "EC50", "value": "25 to 60", "unit": "µM"},
      {"measurement": "% Activity", "value": "+ (<25%)"}
    ]},
    {"molecule": "O=C(Nc1ccccc1-c1ccccc1)c1c[nH]c2cc(C(F)(F)F)ccc2c1=O", "note": "[Compound 469, 4-oxo-N-(2-phenylphenyl)-7-(trifluoromethyl)-1H-quinoline-3-carboxamide]", "values": [
      {"measurement": "EC50", "value": "< 10", "unit": "µM"},
      {"measurement": "% Activity", "value": "++ (between 25% to 100%)"}
    ]},
    {"molecule": "O=C(Nc1ccc(Sc2ccccc2)cc1)c1c[nH]c2ccccc2c1=O", "note": "[Compound 470, 4-oxo-N-(4-phenylsulfanylphenyl)-1H-quinoline-3-carboxamide]", "values": [
      {"measurement": "EC50", "value": "< 10", "unit": "µM"},
      {"measurement": "% Activity", "value": "++ (between 25% to 100%)"}
    ]},
    {"molecule": "CCCc1ccc(NC(=O)OC)cc1NC(=O)c1c[nH]c2ccccc2c1=O", "note": "[Compound 471, [3-[(4-oxo-1H-quinoline-3-yl)carbonylamino]-4-propyl-phenyl]aminoformic acid methyl ester]", "values": [
      {"measurement": "EC50", "value": "< 10", "unit": "µM"},
      {"measurement": "% Activity", "value": "++ (between 25% to 100%)"}
    ]},
    {"molecule": "CCOC(=O)Nc1ccc(CC)c(NC(=O)c2c[nH]c3ccccc3c2=O)c1", "note": "[Compound 472, [4-ethyl-3-[(4-oxo-1H-quinolin-3-yl)carbonylamino]phenyl]aminoformic acid ethyl ester]", "values": [
      {"measurement": "% Activity", "value": "++ (between 25% to 100%)"}
    ]},
    {"molecule": "CC(C)n1cc(C(=O)Nc2ccccc2C(C)(C)C)c(=O)c2ccccc21", "note": "[Compound 473, 1-isopropyl-4-oxo-N-(2-tert-butylphenyl)-1H-quinoline-3-carboxamide]", "values": [
      {"measurement": "EC50", "value": "10 to 25", "unit": "µM"},
      {"measurement": "% Activity", "value": "++ (between 25% to 100%)"}
    ]},
    {"molecule": "Cn1c(=O)oc2ccc(NC(=O)c3c[nH]c4ccccc4c3=O)cc21", "note": "[Compound 474, N-(3-methyl-2-oxo-3H-benzooxazol-5-yl)-4-oxo-1H-quinoline-3-carboxamide]", "values": [
      {"measurement": "EC50", "value": "25 to 60", "unit": "µM"},
      {"measurement": "% Activity", "value": "+ (<25%)"}
    ]},
    {"molecule": "CC(C)(C)c1cc(C#N)c(NC(=O)c2c[nH]c3ccccc3c2=O)cc1O", "note": "[Compound 476, N-(4-tert-Butyl-2-cyano-5-hydroxyphenyl)-1,4-dihydro-4-oxoquinoline-3-carboxamide]", "values": [
      {"measurement": "EC50", "value": "< 10", "unit": "µM"},
      {"measurement": "% Activity", "value": "++ (between 25% to 100%)"}
    ]},
    {"molecule": "O=C(Nc1ccc(F)cn1)c1c[nH]c2ccccc2c1=O", "note": "[Compound 477, N-(5-fluoro-2-pyridyl)-4-oxo-1H-quinoline-3-carboxamide]", "values": [
      {"measurement": "EC50", "value": "25 to 60", "unit": "µM"},
      {"measurement": "% Activity", "value": "+ (<25%)"}
    ]},
    {"molecule": "CC(C)(C)c1c[nH]c2cc(NC(=O)c3c[nH]c4ccccc4c3=O)ccc12", "note": "[Compound 478, 4-oxo-N-(3-tert-butyl-1H-indol-6-yl)-1H-quinoline-3-carboxamide]", "values": [
      {"measurement": "EC50", "value": "< 10", "unit": "µM"},
      {"measurement": "% Activity", "value": "++ (between 25% to 100%)"}
    ]},
    {"molecule": "COc1cccc2[nH]cc(C(=O)Nc3ccc4cc[nH]c4c3)c(=O)c12", "note": "[Compound 479, N-(1H-indol-6-yl)-5-methoxy-4-oxo-1H-quinoline-3-carboxamide]", "values": [
      {"measurement": "EC50", "value": "< 10", "unit": "µM"},
      {"measurement": "% Activity", "value": "++ (between 25% to 100%)"}
    ]},
    {"molecule": "CCn1cc(C(=O)Nc2ccccc2)c(=O)c2cc(OC)ccc21", "note": "[Compound 480, 1-ethyl-6-methoxy-4-oxo-N-phenyl-1H-quinoline-3-carboxamide]", "values": [
      {"measurement": "EC50", "value": "25 to 60", "unit": "µM"},
      {"measurement": "% Activity", "value": "+ (<25%)"}
    ]},
    {"molecule": "O=C(Nc1ccc2ccccc2c1)c1c[nH]c2ccccc2c1=O", "note": "[Compound 481, N-(2-naphthyl)-4-oxo-1H-quinoline-3-carboxamide]", "values": [
      {"measurement": "EC50", "value": "< 10", "unit": "µM"},
      {"measurement": "% Activity", "value": "++ (between 25% to 100%)"}
    ]},
    {"molecule": "CCOC(=O)NC1CCCc2ccc(NC(=O)c3c[nH]c4ccccc4c3=O)cc21", "note": "(centres unmarked) [Compound 482, [7-[(4-Oxo-1H-quinolin-3-yl)carbonylamino]tetralin-1-yl]aminoformic acid ethyl ester]", "values": [
      {"measurement": "EC50", "value": "10 to 25", "unit": "µM"},
      {"measurement": "% Activity", "value": "++ (between 25% to 100%)"}
    ]},
    {"molecule": "CC1(c2cc(F)c(NC(=O)c3cnc4ccccc4c3O)cc2O)CCCCCC1", "note": "[Compound 483, N-[2-fluoro-5-hydroxy-4-(1-methylcycloheptyl)-phenyl]-4-hydroxy-quinoline-3-carboxamide]", "values": [
      {"measurement": "EC50", "value": "< 10", "unit": "µM"},
      {"measurement": "% Activity", "value": "++ (between 25% to 100%)"}
    ]},
    {"molecule": "CNc1cc(NC(=O)c2c[nH]c3ccccc3c2=O)ccc1C(C)(C)C", "note": "[Compound 484, N-(3-methylamino-4-tert-butyl-phenyl)-4-oxo-1H-quinoline-3-carboxamide]", "values": [
      {"measurement": "EC50", "value": "< 10", "unit": "µM"},
      {"measurement": "% Activity", "value": "++ (between 25% to 100%)"}
    ]},
    {"molecule": "CN(C)c1cc(NC(=O)c2c[nH]c3ccccc3c2=O)ccc1C(C)(C)C", "note": "[Compound 485, N-(3-Dimethylamino-4-tert-butyl-phenyl)-4-oxo-1H-quinoline-3-carboxamide]", "values": [
      {"measurement": "% Activity", "value": "++ (between 25% to 100%)"}
    ]},
    {"molecule": "CC(C)(C)c1cc(F)c(NC(=O)c2c[nH]c3cc(F)c(F)cc3c2=O)cc1O", "note": "[Compound 486, 6,7-difluoro-N-(2-fluoro-5-hydroxy-4-tert-butyl-phenyl)-4-oxo-1H-quinoline-3-carboxamide]", "values": [
      {"measurement": "EC50", "value": "< 10", "unit": "µM"},
      {"measurement": "% Activity", "value": "++ (between 25% to 100%)"}
    ]},
    {"molecule": "CC(C)(C)c1cc(C(F)(F)F)c(NC(=O)c2c[nH]c3cccc(O)c3c2=O)cc1O", "note": "[Compound 487, 5-hydroxy-N-[5-hydroxy-4-tert-butyl-2-(trifluoromethyl)phenyl]-4-oxo-1H-quinoline-3-carboxamide]", "values": [
      {"measurement": "EC50", "value": "< 10", "unit": "µM"},
      {"measurement": "% Activity", "value": "++ (between 25% to 100%)"}
    ]},
    {"molecule": "O=C(Nc1cc(N2CCCCC2)cc(C(F)(F)F)c1)c1c[nH]c2ccccc2c1=O", "note": "[Compound 488, 4-oxo-N-[3-(1-piperidyl)-5-(trifluoromethyl)phenyl]-1H-quinoline-3-carboxamide]", "values": [
      {"measurement": "EC50", "value": "< 10", "unit": "µM"},
      {"measurement": "% Activity", "value": "++ (between 25% to 100%)"}
    ]},
    {"molecule": "Cc1ccc2[nH]cc(C(=O)Nc3ccc(N4CCC(C)(C)C4)cc3C(F)(F)F)c(=O)c2c1", "note": "[Compound 489, N-[4-(3,3-dimethylpyrrolidin-1-yl)-2-(trifluoromethyl)phenyl]-6-methyl-4-oxo-1H-quinoline-3-carboxamide]", "values": [
      {"measurement": "EC50", "value": "< 10", "unit": "µM"},
      {"measurement": "% Activity", "value": "++ (between 25% to 100%)"}
    ]},
    {"molecule": "CC(C)(C)c1ccc(NC(=O)c2c[nH]c3ccc(F)cc3c2=O)cc1O", "note": "[Compound 490, 6-fluoro-N-(3-hydroxy-4-tert-butyl-phenyl)-4-oxo-1H-quinoline-3-carboxamide]", "values": [
      {"measurement": "EC50", "value": "< 10", "unit": "µM"},
      {"measurement": "% Activity", "value": "++ (between 25% to 100%)"}
    ]},
    {"molecule": "CC(C)(C)c1ccc(NC(=O)c2c[nH]c3cccc(O)c3c2=O)cc1F", "note": "[Compound 491, N-(3-fluoro-4-tert-butyl-phenyl)-5-hydroxy-4-oxo-1H-quinoline-3-carboxamide]", "values": [
      {"measurement": "EC50", "value": "< 10", "unit": "µM"},
      {"measurement": "% Activity", "value": "++ (between 25% to 100%)"}
    ]},
    {"molecule": "COC(=O)C1CCCCN1c1ccc(NC(=O)c2c[nH]c3ccccc3c2=O)c(C(F)(F)F)c1", "note": "(centres unmarked) [Compound 492, methyl 1-[4-[(4-oxo-1H-quinolin-3-yl)carbonylamino]-3-(trifluoromethyl)phenyl]piperidine-2-carboxylate]", "values": [
      {"measurement": "EC50", "value": "< 10", "unit": "µM"},
      {"measurement": "% Activity", "value": "+++ (>100%)"}
    ]},
    {"molecule": "CC(CO)(CO)c1ccc(NC(=O)c2c[nH]c3cccc(O)c3c2=O)cc1", "note": "[Compound 493, 5-hydroxy-N-[4-[2-hydroxy-1-(hydroxymethyl)-1-methyl-ethyl]phenyl]-4-oxo-1H-quinoline-3-carboxamide]", "values": [
      {"measurement": "EC50", "value": "< 10", "unit": "µM"},
      {"measurement": "% Activity", "value": "++ (between 25% to 100%)"}
    ]},
    {"molecule": "O=C(Nc1cc2[nH]ccc2cc1C(F)(F)F)c1c[nH]c2cccc(O)c2c1=O", "note": "[Compound 494, 5-hydroxy-4-oxo-N-[5-(trifluoromethyl)-1H-indol-6-yl]-1H-quinoline-3-carboxamide]", "values": [
      {"measurement": "EC50", "value": "< 10", "unit": "µM"},
      {"measurement": "% Activity", "value": "++ (between 25% to 100%)"}
    ]},
    {"molecule": "O=C(Nc1ccc2cc(C(F)(F)F)[nH]c2c1)c1c[nH]c2ccc(F)cc2c1=O", "note": "[Compound 495, 6-fluoro-4-oxo-N-[2-(trifluoromethyl)-1H-indol-6-yl]-1H-quinoline-3-carboxamide]", "values": [
      {"measurement": "EC50", "value": "< 10", "unit": "µM"},
      {"measurement": "% Activity", "value": "++ (between 25% to 100%)"}
    ]},
    {"molecule": "COc1ccc2[nH]cc(C(=O)Nc3cc(O)c(C(C)(C)C)cc3C(C)(C)C)c(=O)c2c1", "note": "[Compound 496, N-(5-hydroxy-2,4-ditert-butyl-phenyl)-6-methoxy-4-oxo-1H-quinoline-3-carboxamide]", "values": [
      {"measurement": "EC50", "value": "< 10", "unit": "µM"},
      {"measurement": "% Activity", "value": "++ (between 25% to 100%)"}
    ]},
    {"molecule": "CC(C)c1cc(C(F)(F)F)c(NC(=O)c2c[nH]c3ccccc3c2=O)cc1O", "note": "[Compound 497, N-[5-hydroxy-4-isopropyl-2-(trifluoromethyl)phenyl]-4-oxo-1H-quinoline-3-carboxamide]", "values": [
      {"measurement": "EC50", "value": "< 10", "unit": "µM"},
      {"measurement": "% Activity", "value": "+++ (>100%)"}
    ]},
    {"molecule": "Cc1cccc2[nH]cc(C(=O)Nc3cc(O)c(C4(C)CCCCC4)cc3F)c(=O)c12", "note": "[Compound 498, N-[2-fluoro-5-hydroxy-4-(1-methylcyclohexyl)-phenyl]-5-methyl-4-oxo-1H-quinoline-3-carboxamide]", "values": [
      {"measurement": "EC50", "value": "< 10", "unit": "µM"},
      {"measurement": "% Activity", "value": "++ (between 25% to 100%)"}
    ]},
    {"molecule": "Cc1ccc2c(=O)c(C(=O)Nc3cc(O)c(C4(C)CCCCC4)cc3F)c[nH]c2c1", "note": "[Compound 499, N-[2-fluoro-5-hydroxy-4-(1-methylcyclohexyl)-phenyl]-7-methyl-4-oxo-1H-quinoline-3-carboxamide]", "values": [
      {"measurement": "EC50", "value": "< 10", "unit": "µM"},
      {"measurement": "% Activity", "value": "++ (between 25% to 100%)"}
    ]},
    {"molecule": "CC(C)(C)c1cc2cc[nH]c2cc1NC(=O)c1c[nH]c2cccc(O)c2c1=O", "note": "[Compound 500, 5-hydroxy-4-oxo-N-(5-tert-butyl-1H-indol-6-yl)-1H-quinoline-3-carboxamide]", "values": [
      {"measurement": "EC50", "value": "< 10", "unit": "µM"},
      {"measurement": "% Activity", "value": "++ (between 25% to 100%)"}
    ]}
  ]
}
